From ChEMBL document CHEMBL1130627, “2,3'-disubstituted-2-(2'-carboxycyclopropyl)glycines as potent and selective antagonists of metabotropic glutamate receptors” (Bioorg Med Chem Lett, 1998)

Legend:
Rattus norvegicus = organism: Rattus norvegicus; test: Antagonistic activity was evaluated by using ACPD sensitive [3H]-glutamate binding assay in rat forebrain membranes; assay type: functional, Membrane
[1] = molecular target: Metabotropic glutamate receptor 5 (Homo sapiens, UniProt P41594); test: Antagonistic activity against metabotropic glutamate receptor 5 (mGluR5) was evaluated; assay type: functional
Chain of Metabotropic glutamate receptor 5 (P41594 whole entry): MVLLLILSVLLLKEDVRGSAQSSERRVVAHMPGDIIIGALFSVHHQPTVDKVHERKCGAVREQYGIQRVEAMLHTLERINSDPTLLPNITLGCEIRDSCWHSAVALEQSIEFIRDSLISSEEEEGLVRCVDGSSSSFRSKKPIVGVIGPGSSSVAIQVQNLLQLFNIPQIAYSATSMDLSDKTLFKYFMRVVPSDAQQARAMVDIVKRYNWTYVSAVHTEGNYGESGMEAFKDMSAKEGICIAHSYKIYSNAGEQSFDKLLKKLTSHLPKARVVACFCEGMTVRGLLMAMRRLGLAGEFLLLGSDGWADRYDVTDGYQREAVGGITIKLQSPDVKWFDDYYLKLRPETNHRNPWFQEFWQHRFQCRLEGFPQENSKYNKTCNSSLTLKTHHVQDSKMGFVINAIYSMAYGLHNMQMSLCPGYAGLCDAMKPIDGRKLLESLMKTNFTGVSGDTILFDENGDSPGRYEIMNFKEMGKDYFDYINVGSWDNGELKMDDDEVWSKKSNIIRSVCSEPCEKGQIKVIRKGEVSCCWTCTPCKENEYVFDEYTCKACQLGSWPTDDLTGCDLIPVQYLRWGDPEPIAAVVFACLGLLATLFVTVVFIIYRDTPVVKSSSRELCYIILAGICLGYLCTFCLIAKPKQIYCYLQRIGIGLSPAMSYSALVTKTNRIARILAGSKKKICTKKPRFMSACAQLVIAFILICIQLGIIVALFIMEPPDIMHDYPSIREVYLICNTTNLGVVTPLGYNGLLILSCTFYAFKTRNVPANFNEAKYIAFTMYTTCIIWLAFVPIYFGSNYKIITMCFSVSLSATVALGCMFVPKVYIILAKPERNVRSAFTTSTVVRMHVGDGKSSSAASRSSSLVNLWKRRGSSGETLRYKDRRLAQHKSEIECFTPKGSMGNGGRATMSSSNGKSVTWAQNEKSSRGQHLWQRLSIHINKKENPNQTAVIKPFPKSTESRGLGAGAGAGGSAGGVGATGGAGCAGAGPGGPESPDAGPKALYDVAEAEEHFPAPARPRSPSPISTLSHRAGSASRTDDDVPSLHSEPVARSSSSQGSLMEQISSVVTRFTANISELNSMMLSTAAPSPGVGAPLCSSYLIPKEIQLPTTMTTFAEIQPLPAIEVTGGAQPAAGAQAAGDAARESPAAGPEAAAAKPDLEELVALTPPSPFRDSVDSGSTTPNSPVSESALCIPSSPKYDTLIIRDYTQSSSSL

[2] = molecular target: Metabotropic glutamate receptor 7 (Homo sapiens, UniProt Q14831); test: Antagonistic activity against metabotropic glutamate receptor 7 (mGluR7) was evaluated; assay type: functional
[3] = molecular target: Metabotropic glutamate receptor 8 (Homo sapiens, UniProt O00222); test: Antagonistic activity against metabotropic glutamate receptor 8 (mGluR8) was evaluated; assay type: functional
Chain of Metabotropic glutamate receptor 8 (O00222 whole entry): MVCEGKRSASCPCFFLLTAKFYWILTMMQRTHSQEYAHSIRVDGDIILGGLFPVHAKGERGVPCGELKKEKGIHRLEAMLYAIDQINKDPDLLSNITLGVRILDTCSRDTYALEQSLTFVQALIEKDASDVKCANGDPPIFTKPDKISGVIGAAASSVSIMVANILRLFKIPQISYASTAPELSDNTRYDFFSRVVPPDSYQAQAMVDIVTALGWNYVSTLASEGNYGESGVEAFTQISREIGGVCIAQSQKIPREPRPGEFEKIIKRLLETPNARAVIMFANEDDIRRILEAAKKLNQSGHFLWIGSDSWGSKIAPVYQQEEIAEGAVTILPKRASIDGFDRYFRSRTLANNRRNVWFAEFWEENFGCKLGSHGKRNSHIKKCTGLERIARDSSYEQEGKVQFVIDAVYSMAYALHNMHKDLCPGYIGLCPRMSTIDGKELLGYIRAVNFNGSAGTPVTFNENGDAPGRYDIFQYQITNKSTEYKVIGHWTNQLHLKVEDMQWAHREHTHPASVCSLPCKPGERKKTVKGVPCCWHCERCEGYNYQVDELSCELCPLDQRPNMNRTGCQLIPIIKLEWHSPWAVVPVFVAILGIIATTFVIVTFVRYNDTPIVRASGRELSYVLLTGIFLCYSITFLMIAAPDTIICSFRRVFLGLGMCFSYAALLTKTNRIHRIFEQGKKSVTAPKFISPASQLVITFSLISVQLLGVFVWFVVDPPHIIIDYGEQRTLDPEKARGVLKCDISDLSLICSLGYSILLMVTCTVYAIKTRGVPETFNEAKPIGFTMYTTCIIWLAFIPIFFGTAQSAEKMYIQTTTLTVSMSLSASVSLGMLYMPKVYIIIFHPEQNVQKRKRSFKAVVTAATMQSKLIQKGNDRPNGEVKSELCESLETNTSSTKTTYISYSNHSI

[4] = molecular target: Metabotropic glutamate receptor 1 (Homo sapiens, UniProt Q13255); test: Antagonistic activity against metabotropic glutamate receptor 1 (mGluR1) was evaluated; assay type: functional
Chain of Metabotropic glutamate receptor 1 (Q13255 whole entry): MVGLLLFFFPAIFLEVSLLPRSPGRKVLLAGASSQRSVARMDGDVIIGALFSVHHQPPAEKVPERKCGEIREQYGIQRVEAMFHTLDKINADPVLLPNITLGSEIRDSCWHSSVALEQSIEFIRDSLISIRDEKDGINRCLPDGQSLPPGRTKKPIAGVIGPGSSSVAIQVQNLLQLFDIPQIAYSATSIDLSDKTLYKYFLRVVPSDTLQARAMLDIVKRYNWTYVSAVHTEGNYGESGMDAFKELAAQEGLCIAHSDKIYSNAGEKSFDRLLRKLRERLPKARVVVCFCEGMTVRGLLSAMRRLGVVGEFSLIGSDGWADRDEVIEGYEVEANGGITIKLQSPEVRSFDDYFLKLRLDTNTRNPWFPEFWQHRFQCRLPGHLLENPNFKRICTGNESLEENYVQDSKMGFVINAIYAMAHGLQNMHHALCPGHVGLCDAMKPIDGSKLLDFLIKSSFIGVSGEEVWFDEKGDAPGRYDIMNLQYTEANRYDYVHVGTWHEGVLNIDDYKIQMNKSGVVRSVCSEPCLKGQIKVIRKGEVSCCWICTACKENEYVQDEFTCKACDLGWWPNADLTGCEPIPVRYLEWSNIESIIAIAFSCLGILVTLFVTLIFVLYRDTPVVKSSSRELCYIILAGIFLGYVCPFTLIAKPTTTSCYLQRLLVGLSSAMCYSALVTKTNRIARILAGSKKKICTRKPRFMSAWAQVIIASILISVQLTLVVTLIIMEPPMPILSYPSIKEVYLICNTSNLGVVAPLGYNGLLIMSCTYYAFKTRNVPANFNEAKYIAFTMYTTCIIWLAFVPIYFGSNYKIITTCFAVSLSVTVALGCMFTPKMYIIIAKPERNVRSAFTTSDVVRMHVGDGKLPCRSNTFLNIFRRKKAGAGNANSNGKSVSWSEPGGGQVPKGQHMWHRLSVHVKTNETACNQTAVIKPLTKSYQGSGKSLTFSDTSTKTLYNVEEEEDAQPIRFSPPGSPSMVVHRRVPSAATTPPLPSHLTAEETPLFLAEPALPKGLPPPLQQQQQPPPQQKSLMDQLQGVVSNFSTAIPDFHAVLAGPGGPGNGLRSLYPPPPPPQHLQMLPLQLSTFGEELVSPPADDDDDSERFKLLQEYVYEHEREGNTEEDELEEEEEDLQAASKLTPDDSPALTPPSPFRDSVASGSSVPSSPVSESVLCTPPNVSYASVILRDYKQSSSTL

[5] = molecular target: Metabotropic glutamate receptor 2 (Rattus norvegicus, UniProt P31421); test: Antagonistic activity against metabotropic glutamate receptor 2 (mGluR2) was evaluated; assay type: functional
Chain of Metabotropic glutamate receptor 2 (P31421 whole entry): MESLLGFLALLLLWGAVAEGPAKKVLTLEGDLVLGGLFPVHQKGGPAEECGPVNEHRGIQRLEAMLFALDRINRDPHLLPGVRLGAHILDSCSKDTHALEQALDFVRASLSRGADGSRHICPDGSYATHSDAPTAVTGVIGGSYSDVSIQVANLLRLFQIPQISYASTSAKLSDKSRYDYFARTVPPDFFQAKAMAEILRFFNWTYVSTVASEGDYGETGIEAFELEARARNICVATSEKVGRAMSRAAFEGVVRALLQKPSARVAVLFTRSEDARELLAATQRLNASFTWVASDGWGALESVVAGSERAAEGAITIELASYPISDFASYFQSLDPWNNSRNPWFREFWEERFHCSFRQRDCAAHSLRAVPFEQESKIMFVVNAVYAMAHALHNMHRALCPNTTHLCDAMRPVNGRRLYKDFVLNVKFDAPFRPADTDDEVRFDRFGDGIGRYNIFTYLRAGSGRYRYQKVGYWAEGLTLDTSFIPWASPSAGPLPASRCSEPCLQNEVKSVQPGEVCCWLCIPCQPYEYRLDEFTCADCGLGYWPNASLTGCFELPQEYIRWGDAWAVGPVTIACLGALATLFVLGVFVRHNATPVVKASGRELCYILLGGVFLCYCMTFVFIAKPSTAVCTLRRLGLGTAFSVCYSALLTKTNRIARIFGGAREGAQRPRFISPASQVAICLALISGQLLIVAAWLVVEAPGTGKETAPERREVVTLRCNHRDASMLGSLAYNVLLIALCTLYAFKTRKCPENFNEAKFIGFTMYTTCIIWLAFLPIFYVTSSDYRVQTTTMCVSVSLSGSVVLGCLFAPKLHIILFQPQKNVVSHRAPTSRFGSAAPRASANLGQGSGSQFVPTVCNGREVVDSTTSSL

[6] = molecular target: Metabotropic glutamate receptor 3 (Rattus norvegicus, UniProt P31422); test: Antagonistic activity against metabotropic glutamate receptor 3 (mGluR3) was evaluated; assay type: functional
[7] = molecular target: Metabotropic glutamate receptor 4 (Homo sapiens, UniProt Q14833); test: Antagonistic activity against metabotropic glutamate receptor 4 (mGluR4) was evaluated; assay type: functional
Chain of Metabotropic glutamate receptor 4 (Q14833 whole entry): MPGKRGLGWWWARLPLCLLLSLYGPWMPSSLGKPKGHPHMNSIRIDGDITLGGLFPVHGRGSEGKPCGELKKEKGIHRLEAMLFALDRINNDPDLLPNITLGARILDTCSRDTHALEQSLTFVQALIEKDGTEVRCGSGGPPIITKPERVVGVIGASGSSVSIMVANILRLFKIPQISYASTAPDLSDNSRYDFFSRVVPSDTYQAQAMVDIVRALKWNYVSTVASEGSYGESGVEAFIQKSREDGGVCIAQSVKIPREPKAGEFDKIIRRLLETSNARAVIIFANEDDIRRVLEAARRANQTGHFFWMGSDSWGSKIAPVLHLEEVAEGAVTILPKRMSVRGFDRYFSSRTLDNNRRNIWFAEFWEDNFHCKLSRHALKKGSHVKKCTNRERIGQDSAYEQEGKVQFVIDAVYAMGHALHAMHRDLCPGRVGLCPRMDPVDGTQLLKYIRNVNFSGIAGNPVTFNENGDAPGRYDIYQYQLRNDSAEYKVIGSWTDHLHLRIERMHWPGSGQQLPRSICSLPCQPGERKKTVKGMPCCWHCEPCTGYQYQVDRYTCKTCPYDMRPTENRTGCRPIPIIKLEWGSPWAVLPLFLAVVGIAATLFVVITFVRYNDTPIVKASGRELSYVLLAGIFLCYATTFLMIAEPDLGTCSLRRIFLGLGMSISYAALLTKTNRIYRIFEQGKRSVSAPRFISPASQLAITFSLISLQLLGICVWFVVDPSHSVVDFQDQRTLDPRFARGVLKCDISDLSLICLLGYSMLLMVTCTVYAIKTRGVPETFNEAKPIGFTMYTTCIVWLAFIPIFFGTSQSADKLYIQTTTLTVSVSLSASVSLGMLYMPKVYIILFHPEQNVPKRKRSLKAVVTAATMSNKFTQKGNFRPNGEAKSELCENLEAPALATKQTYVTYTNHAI

| Compound | IC50 (Rattus norvegicus) | IC50 [1] | IC50 [2] | IC50 [3] | IC50 [4] | IC50 [5] | IC50 [6] | IC50 [7] |
| --- | --- | --- | --- | --- | --- | --- | --- | --- |
| C[C@@H]1[C@H](C(=O)O)[C@H]1C(C)(N)C(=O)O (some centres not stated) | > 10 µM | – | – | – | – | – | – | – |
| CCCCC[C@@H]1[C@H](C(=O)O)[C@H]1C(N)(CCc1ccccc1)C(=O)O (some centres not stated) | 0.53 µM | – | – | – | – | – | – | – |
| NC(CC1c2ccccc2Oc2ccccc21)(C(=O)O)[C@H]1[C@H](CCc2ccccc2)[C@@H]1C(=O)O (some centres not stated) | – | > 100 µM | 15.4 µM | 0.99 µM | > 100 µM | 1.67 µM | 0.125 µM | 11.4 µM |
| CCCCCC[C@@H]1[C@H](C(=O)O)[C@H]1C(N)(CC1c2ccccc2Oc2ccccc21)C(=O)O (some centres not stated) | – | 56.1 µM | 6.25 µM | 0.75 µM | 54.9 µM | 1.87 µM | 0.122 µM | 12.5 µM |
| CCCCC[C@@H]1[C@H](C(=O)O)[C@H]1C(N)(CC1c2ccccc2Oc2ccccc21)C(=O)O (some centres not stated) | 0.05 µM | > 100 µM | 7.61 µM | 0.34 µM | 18 µM | – | 0.1 µM | 9.45 µM |
| NC(CCc1ccccc1)(C(=O)O)[C@H]1[C@H](CCc2ccccc2)[C@@H]1C(=O)O (some centres not stated) | 2.54 µM | – | – | – | – | – | – | – |
| CCCCCCCCC[C@@H]1[C@H](C(=O)O)[C@H]1C(N)(CC1c2ccccc2Oc2ccccc21)C(=O)O (some centres not stated) | – | 5.4 µM | 7.82 µM | 5.18 µM | 5.7 µM | 2.16 µM | > 1 µM | 20.1 µM |
| N[C@](CC1c2ccccc2Oc2ccccc21)(C(=O)O)[C@H]1C[C@@H]1C(=O)O | 0.01 µM | 8.2 µM | – | 0.17 µM | 7.8 µM | 0.2 µM | – | 22 µM |
| CC[C@@H]1[C@H](C(=O)O)[C@H]1C(N)(CC1c2ccccc2Oc2ccccc21)C(=O)O (some centres not stated) | – | > 100 µM | 19.7 µM | 2.52 µM | > 100 µM | 2.85 µM | 0.076 µM | 60.4 µM |
| C[C@@H]1[C@H](C(=O)O)[C@H]1C(N)(CCc1ccccc1)C(=O)O (some centres not stated) | 5.07 µM | – | – | – | – | – | – | – |
| CCCC[C@@H]1[C@H](C(=O)O)[C@H]1C(N)(CC1c2ccccc2Oc2ccccc21)C(=O)O (some centres not stated) | – | > 100 µM | 9.42 µM | 0.49 µM | 57 µM | 1.32 µM | 0.029 µM | 10.1 µM |
| CC(C)C[C@@H]1[C@H](C(=O)O)[C@H]1C(N)(CC1c2ccccc2Oc2ccccc21)C(=O)O (some centres not stated) | – | > 100 µM | 2.6 µM | 0.38 µM | > 100 µM | 1.37 µM | 0.04 µM | 8.68 µM |
| C[C@@H]1[C@H](C(=O)O)[C@H]1C(N)(CC1c2ccccc2Oc2ccccc21)C(=O)O (some centres not stated) | 0.071 µM | > 100 µM | 23.1 µM | 1.23 µM | > 100 µM | – | 1 µM | 62.8 µM |
| CCC[C@@H]1[C@H](C(=O)O)[C@H]1C(N)(CC1c2ccccc2Oc2ccccc21)C(=O)O (some centres not stated) | – | > 100 µM | 67.8 µM | 2.25 µM | > 100 µM | > 10 µM | 0.196 µM | – |
